From patent US20100280021A1, “PYRIDOPYRIMIDINE PROTEIN TYROSINE PHOSPHATASE INHIBITORS” (priority 2005, published 2010)

Molecular target: T1, Human PTP1B (1-321) (Homo sapiens, UniProt P18031)
T1 construct: Human PTP1B (1-321) was cloned from a human cDNA library; made in house; host or cells: E. coli
T1 sequence (P18031 1-321): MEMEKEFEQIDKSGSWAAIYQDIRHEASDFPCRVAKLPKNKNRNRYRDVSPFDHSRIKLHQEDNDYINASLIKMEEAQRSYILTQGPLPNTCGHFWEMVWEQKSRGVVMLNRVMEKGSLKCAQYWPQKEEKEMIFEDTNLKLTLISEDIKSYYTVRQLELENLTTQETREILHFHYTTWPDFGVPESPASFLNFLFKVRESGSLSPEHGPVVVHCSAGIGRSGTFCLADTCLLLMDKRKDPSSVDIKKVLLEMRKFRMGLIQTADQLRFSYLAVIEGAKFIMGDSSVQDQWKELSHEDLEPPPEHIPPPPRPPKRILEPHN
Assay: In vitro inhibition of PTP1B (PTPase assays: Malachite Green phosphopeptide method or DiFMUP method)
Assay type: biochemical
Conditions: PTP1B inhibitory activity
Protocol: Human PTP1B (1-321) was cloned from a human cDNA library using conventional molecular biology techniques. The cDNA sequence was identical to the published human PTP1B sequence (Accession number M33689). The protein was expressed and purified from E. coli as described by Barford D. et. al J. Mol. Biol (1994) 239, 726-730.
The measurement of PTPase activity was carried out using one of two methods:
The first method for the measurement of PTP1B inhibitory activity a tyrosine phosphorylated peptide based on the amino acid sequence of insulin receptor tyrosine autophosphorylation site 1146 (TRDI(pY)E) was used as substrate. The reaction conditions were as follows:
PTP1B (0.5-2 nM) was incubated with compound for 15 min in buffer containing 37.5 mM Bis-Tris buffer pH 6.2, 140 mMNaCl, 0.05% BSA and 2 mM DTT. The reaction was started by the addition of 50 μM substrate. After 20 min at room temperature (22-25° C.), the reaction was stopped with KOH and the amount of free phosphate measured using Malachite Green as previously described (Harder et al. 1994 Biochem J. 298; 395).
The second method was used for the measurement of general PTPase inhibitory activity across a panel of PTPases the substrate (6,8-difluoro-4-methylumbelliferyl phosphate (DiFMUP; from Molecular Probes) was used at the Km for each enzyme. The buffer conditions were identical as in the Malachite Green assay. The reaction was stopped with KOH. In this case the dephosphoryated product becomes fluorescent and the fluorescense read (Excitiation: […]/Emmission: 460 nM).
The following Table lists IC50 results for several of the above exemplified compounds: […]

Row | Structure (SMILES) | IC50 [nM]
1 | CNc1nc(N)nc2nc(-c3ccccc3C)ccc12 [Example 1, N4-Methyl-7-o-tolyl-pyrido[2,3-d]pyrimidine-2,4-diamine] | 1660
2 | CNc1nc(N)nc2nc(-c3c(Cl)cccc3Cl)ccc12 [Example 3, 7-(2,6-Dichloro-phenyl)-N4-methyl-pyrido[2,3-d]pyrimidine-2,4-diamine] | 510
3 | CNc1nc(N)nc2nc(C3CCCCC3)ccc12 [Example 9, 7-Cyclohexyl-N4-methyl-pyrido[2,3-d]pyrimidine-2,4-diamine] | 1410
4 | CNc1nc(N)nc2nc(-c3cccs3)ccc12 [Example 13, N4-Methyl-7-thiophen-2-yl-pyrido[2,3-d]pyrimidine-2,4-diamine] | 3570
5 | CNc1nc(N)nc2nc(-c3ccccc3)c(-c3ccccc3)cc12 [Example 14, N4-Methyl-6,7-diphenyl-pyrido[2,3-d]pyrimidine-2,4-diamine] | 2560
6 | CNc1nc(N)nc2nc3c(cc12)CCc1ccccc1-3 [Example 27, N8-Methyl-5,6-dihydro-benzo[h]pyrimido[4,5-b]quinoline-8,10-diamine] | 4220
7 | CNc1nc(N)nc2nc(-c3cccc4ccccc34)ccc12 [Example 28, N4-Methyl-7-naphthalen-1-yl-pyrido[2,3-d]pyrimidine-2,4-diamine] | 1150
8 | CNc1nc(N)nc2nc(-c3ccccc3C(F)(F)F)c(C(=O)O)cc12 [Example 56, 2-Amino-4-methylamino-7-(2-trifluoromethyl-phenyl)-pyrido[2,3-d]pyrimidine-6-carboxylic acid] | 250
9 | CNc1nc(N)nc2nc(C3(c4ccccc4)CCCCC3)ccc12 [Example 59, N4-Methyl-7-(1-phenyl-cyclohexyl)-pyrido[2,3-d]pyrimidine-2,4-diamine] | 10800
10 | CNc1nc(N)nc2nc(-c3c(Oc4ccccc4)cccc3C(F)(F)F)ccc12 [Example 80, N4-Methyl-7-(2-phenoxy-6-trifluoromethyl-phenyl)-pyrido[2,3-d]pyrimidine-2,4-diamine] | 170
11 | CNc1nc(N)nc2nc(-c3c(F)cccc3N3CCOCC3)ccc12 [Example 92, 7-(2-Fluoro-6-morpholino-4-yl-phenyl)-N4-methyl-pyrido[2,3-d]pyrimidine-2,4-diamine] | 2330
12 | CNc1nc(N)nc2nc(-c3c(N4C(C)CCC4C)cccc3C(F)(F)F)ccc12 (stereo not drawn) [Example 107, 7-[2-(2,5-Dimethyl-pyrrolidin-1-yl)-6-trifluoromethyl-phenyl]-N4-methyl-pyrido[2,3-d]pyrimidine-2,4-diamine] | 800
13 | CNc1nc(N)nc2nc(-c3c(N4CCN(C(=O)c5ccco5)CC4)cccc3C(F)(F)F)ccc12 [Example 116, {4-[2-(2-Amino-4-methylamino-pyrido[2,3-d]pyrimidin-7-yl)-3-trifluoromethyl-phenyl]-piperazin-1-yl}-furan-2-yl-methanone] | 300
14 | CNc1nc(N)nc2nc(-c3c(N4CCC(Cc5ccccc5)CC4)cccc3C(F)(F)F)ccc12 [Example 121, 7-[2-(4-Benzyl-piperidin-1-yl)-6-trifluoromethyl-phenyl]-N4-methyl-pyrido[2,3-d]pyrimidine-2,4-diamine] | 2050
15 | CNc1nc(N)nc2nc(-c3ccccc3)cc(-c3ccccc3)c12 [Example 139, N*4*-Methyl-5,7-diphenyl-pyrido[2,3-d]pyrimidine-2,4-diamine] | 52400
